Measurements: US9210927B2, “Pesticidal compositions and processes related thereto” (Dow AgroSciences LLC, priority 2013, dated 2015)

Tests used:
Format in all cases: in vivo
GPA (Myzus persicae) = test: Bioassays on Green Peach Aphid (GPA), foliar spray on cabbage seedlings; conditions: 72 h, corrected % control (Abbott), 200 ppm spray on cabbage seedlings, three days, read-out: GPA Rating
Description: Bioassays on Green Peach Aphid (“GPA”) (Myzus persicae) Certain molecules disclosed in this document were tested against GPA using procedures described in the following example. In the reporting of the results, the “GPA Rating Table” was used (See Table Section). Cabbage seedlings grown in 3-inch pots, with 2-3 small (3-5 cm) true leaves, were used as test substrate. The seedlings were infested with 20-50 GPA (wingless adult and nymph stages) one day prior to chemical application. Four pots with individual seedlings were used for each treatment. Test compounds (2 mg) were dissolved in 2 mL of acetone/MeOH (1:1) solvent, forming stock solutions of 1000 ppm test compound. The stock solutions were diluted 5× with 0.025% Tween 20 in H2O to obtain the solution at 200 ppm test compound. A hand-held aspirator-type sprayer was used for spraying a solution to both sides of […] leaves until runoff. Reference plants (solvent check) were sprayed with the diluent only containing 20% by volume of acetone/MeOH (1:1) solvent. Treated plants were held in a holding room for three days at approximately 25° C. and ambient relative humidity (RH) prior to grading. Evaluation was conducted by counting the number of live aphids per plant under a microscope. Percent Control was measured by using Abbott's correction formula (W. S. Abbott, “A Method of Computing the Effectiveness of an Insecticide” J. Econ. Entomol. 18 (1925), pp. 265-267) as follows. Corrected % Control=100*(X−Y)/X • where • X=No. of live aphids on solvent check plants and • Y=No. of live aphids on treated plants The results are indicated in the table entitled “Table 3: Assay Results” (See Table Section).

CEW (Helicoverpa zea) = test: Bioassays on Corn Earworm (CEW), 128-well diet tray assay; conditions: Helicoverpa zea, 168 h; percent mortality, second instar larvae, 50 μg/cm^2 on artificial diet, five to seven days, 25° C.; read-out: CEW Rating
Procedure, shortened: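 Percent larval mortality, averaged across eight wells, read after five to seven days at 25 °C under 14:10 light-dark. Each well held one to five second-instar larvae on diet surface-dosed at 50 μg/cm^2 (compound applied in acetone-water 90:10, then dried).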

BAW (Spodoptera exigua) = test: Bioassays on Beet Armyworm (BAW), 128-well diet tray assay; conditions: Spodoptera exigua, 168 h, read-out: BAW Rating
Procedure, shortened: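 Diet surface dosed at 50 μg/cm^2 (acetone-water 90:10 vehicle), dried, then infested with second-instar larvae, one to five per well. After five to seven days at 25° C. under 14:10 light-dark, mortality per well was scored and averaged over eight wells.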

Row | Structure (SMILES) | pest or weed control at 200 ppm (GPA (Myzus persicae)) | pest or weed control at 50 µg/cm2 (CEW (Helicoverpa zea)) | pest or weed control at 50 µg/cm2 (BAW (Spodoptera exigua))
1 | CNC(=O)c1ccc(/C=C/C(c2cc(Cl)cc(Cl)c2)C(F)(F)F)cc1 (stereo not drawn) [AC1] | 0 to 80% | – | –
2 | CN(C)C(=O)c1ccc(/C=C/C(c2cc(Cl)cc(Cl)c2)C(F)(F)F)cc1 (stereo not drawn) [AC3] | 0 to 80% | – | –
3 | O=C(NCC(F)(F)F)c1ccc(/C=C/C(c2cc(Cl)cc(Cl)c2)C(F)(F)F)cc1 (stereo not drawn) [AC4] | 0 to 80% | 50 to 100% | –
4 | O=C(c1ccc(/C=C/C(c2cc(Cl)cc(Cl)c2)C(F)(F)F)cc1)N1CCOCC1 (stereo not drawn) [AC5] | 0 to 80% | – | –
5 | Cc1cc(/C=C/C(c2cc(Cl)cc(Cl)c2)C(F)(F)F)ccc1C(=O)NCC(F)(F)F (stereo not drawn) [AC6, (E)-4-(3-(3,5-Dichlorophenyl)-4,4,4-trifluorobut-1-enyl)-2-methyl-N-(2,2,2-trifluoroethyl)benzamide] | 0 to 80% | 50 to 100% | –
6 | Cc1cc(/C=C/C(c2cc(Cl)cc(Cl)c2)C(F)(F)F)ccc1C(=O)NCc1ccc(Cl)nc1 (stereo not drawn) [AC7] | 0 to 80% | 50 to 100% | 50 to 100%
7 | Cc1cc(/C=C/C(c2cc(Cl)cc(Cl)c2)C(F)(F)F)ccc1C(=O)N1CCCC1=O (stereo not drawn) [AC8] | 0 to 80% | 0 to 50% | –
8 | Cc1cc(/C=C/C(c2cc(Cl)cc(Cl)c2)C(F)(F)F)ccc1C(=O)NCc1ccccc1F (stereo not drawn) [AC9] | 0 to 80% | 50 to 100% | 50 to 100%
9 | Cc1cc(/C=C/C(c2cc(Cl)cc(Cl)c2)C(F)(F)F)ccc1C(=O)NC1CSC1 (stereo not drawn) [AC10] | 0 to 80% | 50 to 100% | 50 to 100%
10 | Cc1cc(/C=C/C(c2cc(Cl)cc(Cl)c2)C(F)(F)F)ccc1C(=O)NC1CS(=O)(=O)C1 (stereo not drawn) [AC13] | 0 to 80% | 50 to 100% | 50 to 100%
11 | Cc1cc(/C=C/C(c2cc(Cl)cc(Cl)c2)C(F)(F)F)ccc1C(=O)NCc1cnc(Cl)s1 (stereo not drawn) [AC15] | 0 to 80% | 50 to 100% | 50 to 100%
12 | Cc1cc(/C=C/C(c2cc(Cl)cc(Cl)c2)C(F)(F)F)ccc1C(=O)NNc1ccccc1F (stereo not drawn) [AC17] | 0 to 80% | 50 to 100% | 50 to 100%
13 | Cc1cc(/C=C/C(c2cc(Cl)cc(Cl)c2)C(F)(F)F)ccc1C(=O)NCc1ncccn1 (stereo not drawn) [AC18] | 0 to 80% | 50 to 100% | 50 to 100%
14 | Cc1cc(/C=C/C(c2cc(Cl)cc(Cl)c2)C(F)(F)F)ccc1C(=O)NCC1CCOC1 (stereo not drawn) [AC19] | 0 to 80% | – | –
15 | Cc1cc(/C=C/C(c2cc(Cl)c(Cl)c(Cl)c2)C(F)(F)F)ccc1C(=O)NC1CSC1 (stereo not drawn) [AC23] | 0 to 80% | 50 to 100% | 50 to 100%
16 | Cc1cc(/C=C/C(c2cc(Cl)c(Cl)c(Cl)c2)C(F)(F)F)ccc1C(=O)NCc1cnc(Cl)s1 (stereo not drawn) [AC26] | 0 to 80% | 50 to 100% | 50 to 100%
17 | Cc1cc(/C=C/C(c2cc(Cl)c(Cl)c(Cl)c2)C(F)(F)F)ccc1C(=O)NC(C)(C)c1ccccn1 (stereo not drawn) [AC27] | 0 to 80% | 50 to 100% | 50 to 100%
18 | Cc1cc(/C=C/C(c2cc(Cl)cc(Cl)c2)C(F)(F)F)ccc1C(=O)NCC(=O)NNC(=O)C1CC1 (stereo not drawn) [AC47] | 0 to 80% | – | –
19 | Cc1cc(/C=C/C(c2cc(Cl)cc(Cl)c2)C(F)(F)F)ccc1C(=O)NCc1nccn1C (stereo not drawn) [AC50] | 0 to 80% | – | 50 to 100%
20 | COc1cc(/C=C/C(c2cc(Cl)c(F)c(Cl)c2)C(F)(F)F)ccc1C(=O)NCc1ccc(Cl)nc1 (stereo not drawn) [AC70] | 0 to 80% | – | –

Row | Structure (SMILES) | pest or weed control at 200 ppm (GPA (Myzus persicae)) | pest or weed control at 50 µg/cm2 (CEW (Helicoverpa zea)) | pest or weed control at 50 µg/cm2 (BAW (Spodoptera exigua))
21 | Cc1cc(/C=C\C(c2cc(Cl)cc(Cl)c2)C(F)(F)F)ccc1C(=O)NCc1ccc(Cl)nc1 (stereo not drawn) [AC94] | 0 to 80% | 0 to 50% | –
22 | Cc1cc(/C=C/C(c2cc(Cl)cc(Cl)c2)C(F)(F)F)ccc1C(=O)N(C)Cc1ccc(Cl)nc1 (stereo not drawn) [AC117] | 0 to 80% | – | 50 to 100%
23 | CC(C)(C)C(=O)NCc1ccc(/C=C/C(c2cc(Cl)c(Cl)c(Cl)c2)C(F)(F)F)cc1Cl (stereo not drawn) [CC12] | 0 to 80% | – | –
24 | O=C(NCc1ccc(/C=C/C(c2cc(Cl)c(Cl)c(Cl)c2)C(F)(F)F)cc1Br)C1CC1 (stereo not drawn) [CC26] | 0 to 80% | – | 50 to 100%
25 | CC(C)(C)OC(=O)NCc1ccc(/C=C/C(c2cc(Cl)c(Cl)c(Cl)c2)C(F)(F)F)cc1Cl (stereo not drawn) [CC39] | 0 to 80% | – | –
26 | COC(=O)C(=O)NCc1ccc(/C=C/C(c2cc(Cl)c(Cl)c(Cl)c2)C(F)(F)F)cc1Cl (stereo not drawn) [CC41, (E)-Methyl 2-((2-chloro-4-(4,4,4-trifluoro-3-(3,4,5-trichlorophenyl)but-1-en-1-yl)benzyl)amino)-2-oxoacetate] | 0 to 80% | – | –
27 | O=C(CC(F)(F)F)NOc1ccc(/C=C/C(c2cc(Cl)c(Cl)c(Cl)c2)C(F)(F)F)cc1 (stereo not drawn) [CC53] | 0 to 80% | – | –
28 | Fc1cc(/C=C/C(c2cc(Cl)cc(Cl)c2)C(F)(F)F)ccc1-n1cncn1 (stereo not drawn) [DC48] | – | 50 to 100% | 50 to 100%
29 | FC(F)(F)C(/C=C/c1ccc(-n2cncn2)c(Cl)c1)c1cc(Cl)c(Cl)c(Cl)c1 (stereo not drawn) [DC49] | – | 50 to 100% | 50 to 100%
30 | FC(F)(F)C(/C=C/c1ccc(-n2cncn2)c(Cl)c1)c1cc(Cl)cc(Cl)c1 (stereo not drawn) [DC50] | – | 50 to 100% | 50 to 100%
31 | FC(F)(F)c1cc(/C=C/C(c2cc(Cl)cc(Cl)c2)C(F)(F)F)ccc1-n1cncn1 (stereo not drawn) [DC51] | – | 50 to 100% | 50 to 100%
32 | CNc1cc(/C=C/C(c2cc(Cl)cc(Cl)c2)C(F)(F)F)ccc1-n1cncn1 (stereo not drawn) [DC57, (E)-5-(3-(3,5-Dichlorophenyl)-4,4,4-trifluorobut-1-en-1-yl)-N-methyl-2-(1H-1,2,4-triazol-1-yl)aniline] | – | 50 to 100% | 50 to 100%
33 | CCOC(=O)c1cc(/C=C/C(c2cc(Cl)cc(Cl)c2)C(F)(F)F)ccc1-n1cncn1 (stereo not drawn) [DC60] | – | 50 to 100% | 50 to 100%
34 | Cc1cc(/C=C/C(c2cc(Cl)cc(Cl)c2)C(F)(F)F)ccc1-n1cncn1 (stereo not drawn) [DC62] | – | 50 to 100% | 50 to 100%
35 | Cc1cc(/C=C/C(c2cc(Cl)c(Cl)c(Cl)c2)C(F)(F)F)ccc1-n1cncn1 (stereo not drawn) [DC63] | – | 50 to 100% | 50 to 100%
36 | FC(F)(F)C(/C=C/c1ccc(-n2cncn2)cc1Cl)c1cc(Cl)c(Cl)c(Cl)c1 (stereo not drawn) [DC66] | – | 50 to 100% | 50 to 100%
37 | FC(F)(F)C(/C=C/c1ccc(-n2cncn2)cc1Cl)c1cc(Cl)cc(Cl)c1 (stereo not drawn) [DC67] | – | 50 to 100% | 50 to 100%
38 | C/C(=C\C(c1cc(Cl)cc(Cl)c1)C(F)(F)F)c1ccc(-n2cncn2)cc1 (stereo not drawn) [DC68, (E)-1-(4-(4-(3,5-Dichlorophenyl)-5,5,5-trifluoropent-2-en-2-yl)phenyl)-1H-1,2,4-triazole] | – | 50 to 100% | 50 to 100%
39 | COC(/C=C/c1ccc(-n2cncn2)cc1)(c1cc(Cl)cc(Cl)c1)C(F)(F)F (stereo not drawn) [DC70, (E)-1-(4-(3-(3,5-Dichlorophenyl)-4,4,4-trifluoro-3-methoxybut-1-en-1-yl)phenyl)-1H-1,2,4-triazole] | – | 50 to 100% | 50 to 100%
